Assay results reported in patent US20130136778A1, “PTEROSTILBENE (PTER) FOR USE IN THE PREVENTION AND/OR TREATMENT OF SKIN DISEASES, DAMAGES OR INJURIES” (GREEN MOLECULAR, S.L., priority 2009, published 2013).

How the values were obtained:
[1] = test system: SKH-1 mice; assay: Photocarcinogenesis: chronic exposure to UV-B, precancerous lesions/tumors per mouse; assay type: in vivo; settings: after 30 weeks of chronic exposure to UV-B
Text: The role of UV-B radiation in tumor formation is well known. The continuous exposure to UV-B promotes the formation of oxidative/nitrosative stress, along with alterations in DNA, proteins, etc. that activates various transcription factors (among them NF-κB and AP-1), increase in the telomerase activity, stress, etc. which in turn induces carcinogenesis.
The mice chosen for this study were SKH-1.
The protocol used was the standardized protocol, whereby several mice were irradiated three times per week with a dose of 180 mJ/cm^2 with exposures for 24 weeks; however, […], in order to obtain more evidence of the photoprotector effect on the different treatments used.
The dose of exposure was 180 mJ/cm2, since it had been determined in previous trials that this was the minimal erythemic dose (MED) for this type of rodent.
A range of different commercial photoprotectors were included in this study: • Vichy: Capital Soleil SPF-50+(Vichy Laboratoires). • Isdin: Photoprotector Isdin Extrem (SPF-40 (Isdin SA) • Heliocare: Heliocare gel Protection Ultra 90 (Difa Cooper S.P.A.)
Both the reference compounds and the ones subject of this study were applied to the back of the mice for 20 minutes prior to their exposure to UV-B. […]
During the photocarcinogenesis process, the presence of different tumors was followed and quantified throughout the process. […]

[2] = test system: SKH-1 mice; assay: Thickness of the epidermis after acute UV-B exposure of 360 mJ/cm2; assay type: in vivo
Procedure: UVB Acute exposure protocols were used: Mice underwent a single exposure of 360 mJ/cm2. The study was conducted at 24 hours after exposure. This protocol was used to evaluate the photoprotective effect of the compounds studied. With the same acute-phase protocol mice from all groups were irradiated. Subsequently mice remained in the animal storage area for a week to see the evolution of the inflammatory response and edema. • 1. Edema formation: skinfold thickness was determined with a caliper 24 hours after the first exposure. • 2. Study of the thickness of the epidermis after exposure to acute irradiation (360 mj/cm^2 24 h hours and 7 days after irradiation). • 3. Histological studies: measuring, in the pictures obtained from histological sections, the thickness of the epidermis. For studies of acute exposure skin samples were taken from the back of the mouse. These samples were fixed with 4% paraformaldehyde (24 hours) and embedded in paraffin. Following cutting the samples were stained with hematoxylin and eosin. The two protocols of UV-B exposure used were: • Intense exposure after a single exposure of 360 mJ/cm^2. The study was carried out 24 hours after the exposure. This protocol was used to assess the photoprotective effects of the compounds studied. • Intense exposure after a single exposure of 360 mJ/cm^2. The study was carried out 1 week after the exposure. The mice were kept in the shed for a week to observe the evolution of the inflammatory and edematous response. At 24 hours or 1 week after the administration of the different treatments the mice were sacrificed and their skin fixed with 4% PFA. To measure the thickness of the epidermis to evaluate possible hyperplasia, a computer program was used, Image J, calibrated with the assistance of a Neubauer camera which allowed the measuring of the epidermis. Results obtained were statistically analyzed by ANOVA and contrasted by the Tukey test and grouped according to the significant differences. […] Therefore PTER alone could be used efficiently in the prevention of skin diseases, injuries or damages induced by ultraviolet B radiation. The evaluation of skin thickness was carried out by using computer software (IMAGE J). Results obtained by ANOVA were contrasted by the Tukey test and grouped according to the significant differences. […] Therefore PTER separately could be used efficiently in the prevention of skin diseases, damages or injuries induced by ultraviolet B radiation.

COc1cc(/C=C/c2ccc(O)cc2)cc(OC)c1 [PTER, 3,5-dimethoxy-4′-hydroxy-trans-resveratrol]
mice presenting lesions [1]: 10% | thickness of the epidermis 24 hours after irradiation, applied after UVB ([2]; FIG. 2): more efficient in the treatment of skin diseases, injuries or damages caused by radiation, when applied after the exposure to UVB, than the commercial creams (Vichy, Heliocare and Isdin) | thickness of the epidermis 24 hours after irradiation, applied before UVB ([2]; FIG. 2): more efficient as photoprotector, when applied before the exposure to UVB, than the commercial creams (Vichy, Heliocare and Isdin) | thickness of the epidermis 24 hours after irradiation (before or after application) ([2]; FIG. 2, versus group treated only with UV-B): produced better results than even commercial photoprotectors and Resveratrol | thickness of the epidermis 1 week after irradiation, applied after UVB ([2]; FIG. 3): more efficient in the treatment of skin diseases, injuries or damages caused by radiation, when applied after the exposure to UVB, than the commercial creams (Vichy, Heliocare and Isdin) | thickness of the epidermis 1 week after irradiation, applied before UVB ([2]; FIG. 3): more efficient as photoprotector, when applied before the exposure to UVB, than the commercial creams (Vichy, Heliocare and Isdin)
